Measurements published in patent publication US20150231236A1, “METHODS FOR TREATING PATIENTS WITH HYPERCHOLESTEROLEMIA THAT IS NOT ADEQUATELY CONTROLLED BY MODERATE-DOSE STATIN THERAPY” (Regeneron Pharmaceuticals, Inc., priority 2014, published 2015).

Key:
[1] = system: patients with hypercholesterolemia at high CV risk not adequately controlled with atorvastatin (20 mg or 40 mg); assay: Example 2: randomized, double-blind trial, lipid efficacy of mAb316P add-on to atorvastatin vs EZE add-on, atorvastatin dose doubling or switch to rosuvastatin; format: in vivo, human; details: for reduced LDL-C levels by: week 24, add-on mAb316P
Summary of the method: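 Patients on atorvastatin 20 or 40 mg randomized to mAb316P 75 mg SC Q2W (raised to 150 mg from week 12 per CV risk) or blinded comparators, over 24 weeks. Endpoint: percent change in calculated LDL-C (Friedewald; beta quantification if TG >400 mg/dL) from baseline to week 24.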

[2] = system: patients with hypercholesterolemia at high CV risk not adequately controlled with atorvastatin (20 mg or 40 mg); assay: Example 2: anti-mAb316P anti-drug antibody (ADA) status; format: in vivo, human
[3] = ITT Population, Comparison 5: mAb316P + atorva 40 mg arm vs. EZE + atorva 40 mg arm
[4] = mITT Population, Comparison 1: mAb316P + atorva 20 mg arm vs. atorva 40 mg arm
[5] = mITT Population, Comparison 2: mAb316P + atorva 20 mg arm vs. EZE + atorva 20 mg arm
[6] = mITT Population, Comparison 3: mAb316P + atorva 40 mg arm vs. atorva 80 mg arm
[7] = mITT Population, Comparison 4: mAb316P + atorva 40 mg arm vs. rosuva 40 mg arm
[8] = mITT Population, Comparison 5: mAb316P + atorva 40 mg arm vs. EZE + atorva 40 mg arm
[9] = of the five ADA positive patients

Substance: mAb316P: human anti-PCSK9 antibody; heavy chain SEQ ID NO:5, light chain SEQ ID NO:9
- Delta, percent change from baseline of Apo-B to week 12 [1, 3]: −15.9%
- Delta, percent change from baseline of HDL-C to week 24 [1, 3]: 5.6%
- Delta, percent change from baseline of Lp(a) to week 24 [1, 3]: −31.0%
- Delta, percent change from baseline of Non-HDL-C to week 12 [1, 3]: −14.8%
- Delta, percent change from baseline of Total-C to week 12 [1, 3]: −9.8%
- Delta, percent change from baseline of Total-C to week 24 [1, 3]: −18.4%
- Delta, percent change from baseline of calculated LDL-C to week 12 [1, 3]: −20.9%
- Delta, percent change from baseline of calculated LDL-C to week 24 [1, 3]: −31.4%
- Delta, percent change from baseline of non-HDL-C to week 24 [1, 3]: −26.6%
- Odds Ratio, proportion of patients reaching calculated LDL-C < 70 mg/dL at Week 24 [1, 3]: 9.9
- Odds Ratio, proportion of very high CV risk patients reaching calculated LDL-C < 70 mg/dL or high CV risk patients reaching calculated LDL-C < 100 mg/dL at Week 24 [1, 3]: 7.9
- patients achieving the more stringent LDL-C goal of <70 mg/dL ([1]; Week 24, calculated LDL-C, across atorvastatin 20 mg and 40 mg regimens): 77-79%
- reduced LDL-C levels by ([1]; atorvastatin 20 mg regimen, add-on ezetimibe or doubling of atorvastatin dose): 44.1%
- reduced LDL-C levels by ([1]; atorvastatin 40 mg regimen, add-on ezetimibe, doubling of atorvastatin dose or switch to rosuvastatin 40 mg): 54.0%
- Delta, percent change from baseline of Apo B to week 24 [1, 4]: −32.6%
- Delta, percent change from baseline of calculated LDL-C to week 12 [1, 4]: −44.5%
- Delta, percent change from baseline of calculated LDL-C to week 24 [1, 4]: −42.5%
- Delta, percent change from baseline of non-HDL-C to week 24 [1, 4]: −33.0%
- Odds Ratio, proportion of patients reaching calculated LDL-C < 70 mg/dL at Week 24 [1, 4]: 28.8
- Odds Ratio, proportion of very high CV risk patients reaching calculated LDL-C < 70 mg/dL or high CV risk patients reaching calculated LDL-C < 100 mg/dL at Week 24 [1, 4]: 24.6
- Delta, percent change from baseline of Apo B to week 24 [1, 5]: −25.1%
- Delta, percent change from baseline of calculated LDL-C to week 12 [1, 5]: −26.6%
- Delta, percent change from baseline of calculated LDL-C to week 24 [1, 5]: −24.9%
- Delta, percent change from baseline of non-HDL-C to week 24 [1, 5]: −22.4%
- Odds Ratio, proportion of patients reaching calculated LDL-C < 70 mg/dL at Week 24 [1, 5]: 4.8
- Odds Ratio, proportion of very high CV risk patients reaching calculated LDL-C < 70 mg/dL or high CV risk patients reaching calculated LDL-C < 100 mg/dL at Week 24 [1, 5]: 5.0
- Delta, percent change from baseline of Apo B to week 24 [1, 6]: −38.3%
- Delta, percent change from baseline of calculated LDL-C to week 12 [1, 6]: −36.3%
- Delta, percent change from baseline of calculated LDL-C to week 24 [1, 6]: −52.8%
- Delta, percent change from baseline of non-HDL-C to week 24 [1, 6]: −43.6%
- Odds Ratio, proportion of patients reaching calculated LDL-C < 70 mg/dL at Week 24 [1, 6]: 162.1
- Odds Ratio, proportion of very high CV risk patients reaching calculated LDL-C < 70 mg/dL or high CV risk patients reaching calculated LDL-C < 100 mg/dL at Week 24 [1, 6]: 130.8
- Delta, percent change from baseline of Apo B to week 24 [1, 7]: −29.8%
- Delta, percent change from baseline of calculated LDL-C to week 12 [1, 7]: −27.7%
- Delta, percent change from baseline of calculated LDL-C to week 24 [1, 7]: −35.0%
- Delta, percent change from baseline of non-HDL-C to week 24 [1, 7]: −32.1%
- Odds Ratio, proportion of patients reaching calculated LDL-C < 70 mg/dL at Week 24 [1, 7]: 19.8
- Odds Ratio, proportion of very high CV risk patients reaching calculated LDL-C < 70 mg/dL or high CV risk patients reaching calculated LDL-C < 100 mg/dL at Week 24 [1, 7]: 8.5
- Delta, percent change from baseline of Apo B to week 24 [1, 8]: −26.4%
- Delta, percent change from baseline of calculated LDL-C to week 12 [1, 8]: −20.2%
- Delta, percent change from baseline of calculated LDL-C to week 24 [1, 8]: −33.4%
- Delta, percent change from baseline of non-HDL-C to week 24 [1, 8]: −27.3%
- Odds Ratio, proportion of patients reaching calculated LDL-C < 70 mg/dL at Week 24 [1, 8]: 13.9
- Odds Ratio, proportion of very high CV risk patients reaching calculated LDL-C < 70 mg/dL or high CV risk patients reaching calculated LDL-C < 100 mg/dL at Week 24 [1, 8]: 10.8
- Treatment-emergent ADA positive responses ([2]; 5 of 99 patients in the pooled mAb316P add-on group): 5.1%
- overall immunogenicity ([2]; in vivo): immunogenicity was low
- positive mAb316P-neutralizing antibody status ([2]; of patients with positive ADA status): One and one
- treatment-emergent ADA: persistent responses [2, 9]: three
- treatment-emergent ADA: transient response [2, 9]: one
